Eight compounds from patent US11191769B2, “Fused thiophene compounds” (BioTheryX, Inc., priority 2018, dated 2021) can be followed below.

What all share (format): cell-based
One assay has as its target T1, IKAROS (Homo sapiens, UniProt Q13422+Q96SW2).
T1 construct: endogenous in cells; host or cells: MV-4-11
In words: IKAROS degradation assay (Western blot, MV-4-11 cells). As to conditions: 6-8 hours; for IKAROS % degradation at 1 µM: MV4-11, 1 μM. The method, then:
(§1) MV-4-11 cells were grown in RPMI 1640 media supplemented with 10% fetal bovine serum, streptomycin and penicillin.
(§2) Cells were cultured at approximately 10^6 cells per mL and incubated in DMSO or the indicated compound for 6-8 hours. Whole cell extracts were prepared using RIPA buffer according to manufacturer's protocol (Pierce). Briefly, 3×10^6 cells were washed once in PBS, the cell pellets were resuspended in RIPA buffer and allowed to incubate for 15 minutes on ice. Cells debris was removed by centrifugation and the cleared whole cell lysates were transferred to new tubes for further analysis.
(§3) For Western blot analysis, whole cell protein extracts were separated on 4-12% SDS-polyacrylamide gels, transferred to nitrocellulose and probed with the indicated primary antibodies. Membranes were subsequently washed and probed with the appropriate IRDye secondary antibodies (LI-COR). The signal was detected using the Odyssey Imaging System (LI-COR).
(§4) The following antibodies were used in these studies: Anti-eRF3/GSPT1: Abcam, ab126090 (Cambridge, Mass.); Anti-Ikaros: Abcam, ab191394 (Cambridge, Mass.); Anti-CK1α: Abcam, ab108296 (Cambridge, Mass.); β-actin (8H10D10) mouse monoclonal antibody: Cell Signaling Technology, #3700 (Danvers, Mass.); IRDye 680RD Goat anti-rabbit antibody: LI-COR, 926-68071 (Lincoln, Nebr.); IRDye 800CW Goat anti-mouse antibody: LI-COR, 926-32210 (Lincoln, Nebr.).
(§5) In each of Tables 1-4, the % degradation values are reported as “A”, “B”, “C”, or “D”. “A” represents a % degradation value of less than 25% (value<25%). “B” represents a % degradation value of equal to or more than 25% and less than 50% (25%≤value<50%). “C” represents a % degradation value of equal to or more than 50% and less than 75% (50%≤value <75%). “D” represents a % degradation value of equal to or more than 75% (value≥75%).

Another assay concerns the target T2, CK1α (Homo sapiens, UniProt P48729+Q96SW2).
T2 construct: Whole cell extracts were prepared using RIPA buffer; endogenous in cells; host or cells: MV-4-11
Description: CK1α degradation assay (Western blot, MV-4-11 cells). Conditions: MV4-11, 6-8 hours. As for the experimental part: as §1, §2, §3, §4, §5

In the next assay the target is T3, GSPT1 (Homo sapiens, UniProt P15170+Q96SW2).
T3 construct: Whole cell extracts were prepared using RIPA buffer; endogenous in cells; host or cells: MV-4-11
T3 sequence (P15170 whole entry): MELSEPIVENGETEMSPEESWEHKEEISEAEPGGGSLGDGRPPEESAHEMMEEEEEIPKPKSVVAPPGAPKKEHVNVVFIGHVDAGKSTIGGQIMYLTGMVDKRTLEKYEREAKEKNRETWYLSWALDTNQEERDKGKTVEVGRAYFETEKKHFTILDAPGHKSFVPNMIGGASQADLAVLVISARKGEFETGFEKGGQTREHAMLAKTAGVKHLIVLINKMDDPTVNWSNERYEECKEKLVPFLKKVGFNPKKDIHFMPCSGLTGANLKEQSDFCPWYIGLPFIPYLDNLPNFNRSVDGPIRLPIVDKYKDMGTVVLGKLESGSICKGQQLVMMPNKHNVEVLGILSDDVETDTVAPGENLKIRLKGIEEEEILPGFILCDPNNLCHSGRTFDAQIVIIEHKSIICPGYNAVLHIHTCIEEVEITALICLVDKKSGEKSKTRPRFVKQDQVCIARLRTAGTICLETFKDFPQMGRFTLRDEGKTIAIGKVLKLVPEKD
T3 sequence (Q96SW2 whole entry): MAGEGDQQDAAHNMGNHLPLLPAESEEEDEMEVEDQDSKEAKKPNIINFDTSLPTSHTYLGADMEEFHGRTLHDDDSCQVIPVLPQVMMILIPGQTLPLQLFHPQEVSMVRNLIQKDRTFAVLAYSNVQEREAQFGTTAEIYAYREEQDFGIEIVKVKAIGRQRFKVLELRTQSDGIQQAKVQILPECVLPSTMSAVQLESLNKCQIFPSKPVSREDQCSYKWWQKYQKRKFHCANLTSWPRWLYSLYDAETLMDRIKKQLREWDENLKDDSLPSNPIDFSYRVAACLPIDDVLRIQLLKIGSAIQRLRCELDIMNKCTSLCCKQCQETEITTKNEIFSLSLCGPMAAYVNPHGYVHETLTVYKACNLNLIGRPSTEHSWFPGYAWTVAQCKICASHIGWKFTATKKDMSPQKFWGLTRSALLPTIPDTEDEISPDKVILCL
T3 sequence (Q16531 whole entry partner): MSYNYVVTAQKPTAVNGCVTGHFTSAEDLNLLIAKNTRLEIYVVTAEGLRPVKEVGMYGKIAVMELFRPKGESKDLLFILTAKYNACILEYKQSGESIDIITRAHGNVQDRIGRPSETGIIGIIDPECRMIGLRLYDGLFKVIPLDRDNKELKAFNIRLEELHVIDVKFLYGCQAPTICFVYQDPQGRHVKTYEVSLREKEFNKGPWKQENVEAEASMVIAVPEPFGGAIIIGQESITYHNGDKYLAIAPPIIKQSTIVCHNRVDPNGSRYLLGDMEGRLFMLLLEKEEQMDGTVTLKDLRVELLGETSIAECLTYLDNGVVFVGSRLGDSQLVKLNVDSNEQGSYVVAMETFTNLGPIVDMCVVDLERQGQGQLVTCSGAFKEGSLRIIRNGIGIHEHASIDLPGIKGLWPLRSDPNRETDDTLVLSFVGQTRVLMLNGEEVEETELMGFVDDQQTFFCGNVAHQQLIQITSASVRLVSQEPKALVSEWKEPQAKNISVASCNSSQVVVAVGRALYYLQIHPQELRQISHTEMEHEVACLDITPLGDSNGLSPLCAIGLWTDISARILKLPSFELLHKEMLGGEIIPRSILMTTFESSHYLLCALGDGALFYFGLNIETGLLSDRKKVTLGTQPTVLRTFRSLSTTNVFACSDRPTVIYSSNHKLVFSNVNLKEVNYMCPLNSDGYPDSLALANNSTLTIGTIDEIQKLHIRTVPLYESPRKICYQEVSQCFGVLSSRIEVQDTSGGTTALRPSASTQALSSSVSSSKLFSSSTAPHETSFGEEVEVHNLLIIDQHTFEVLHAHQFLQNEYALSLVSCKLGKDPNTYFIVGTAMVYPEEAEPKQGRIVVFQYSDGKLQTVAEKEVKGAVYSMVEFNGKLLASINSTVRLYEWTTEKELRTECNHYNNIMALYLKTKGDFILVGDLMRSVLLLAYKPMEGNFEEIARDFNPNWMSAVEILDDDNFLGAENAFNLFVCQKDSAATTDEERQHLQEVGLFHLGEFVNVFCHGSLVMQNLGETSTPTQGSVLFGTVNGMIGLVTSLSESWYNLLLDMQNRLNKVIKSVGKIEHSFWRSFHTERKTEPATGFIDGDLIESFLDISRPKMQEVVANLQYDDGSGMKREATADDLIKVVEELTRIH
In words: GSPT1 degradation assay (Western blot, MV-4-11 cells). Conditions: 6-8 hours. The method, then:
as §1, §2, §3, §4, §5

Another assay concerns IL-2. In words: IL-2 fold-change assay, anti-CD3 stimulated PBMCs, Mesoscale. As to conditions: PBMC, PBMCs on anti-human CD3 (OKT3) coated plates, 24 h, fold difference from the DMSO control. As for the experimental part:
For the IL-2 analysis, 96 well plates were precoated with 1 μg/mL anti-human CD3 antibody (OKT3, eBioscience Inc., San Diego, Calif.). After washing with PBS, the indicated compound was added (50 μL/well) followed by PBMCs diluted at 3-4 million cells/mL (150 μL/well). Plates were incubated for 24 h and the supernatants collected for Mesoscale IL-2 analysis. IL-2 activity is measured as fold difference from the DMSO control.
(§6) In each of Tables 5-7, the % inhibition values are reported as “A”, “B”, “C”, or “D”. “A” represents a % inhibition value of less than 50% (value <50%). “B” represents a % inhibition value of equal to or more than 50% and less than 70% (50%≤value<70%). “C” represents a % inhibition value of equal to or more than 70% and less than 90% (70%≤value<90%). “D” represents a % inhibition value of equal or more than 90% (value≥90%). In Table 8, the fold-change values are reported as “A”, “B”, “C”, or “D”. “A” represents a fold-change value of equal to or less than 1 (value≤1). “B” represents a fold-change value of more than 1 and equal to or less than 2 (1<value≤2). “C” represents a fold-change value of more than 2 and equal to or less than 3 (2<value≤3). “D” represents a fold-change value of more than 3 (value>3).

For a further assay, the system named is IL-1β. In words: IL-1β inhibition assay, LPS-induced PBMCs or CD14+ monocytes, Meso Scale. As to conditions: 1 h pretreatment, 100 ng/mL LPS 18-24 h, supernatant, read-out: I1-1β % Inhibition at 10 μM. As for the experimental part: (§7) Either frozen primary blood mononuclear cells (PBMCs) or frozen CD14+ mobilized peripheral blood monocytes were purchased from AllCells (PB003F, Normal Peripheral Blood MNC (Alameda, Calif.)). Cells were quick thawed, washed 1-time with RPMI-1640 (10% FBS/1% Pen-Strep) and plated in 96 well plates at 200,000 cells per well. Cells were pretreated with DMSO only or with the indicated compound for 1 h and then induced with 100 ng/mL lipopolysaccharide (LPS) for 18-24 h. The supernatant was analyzed for IL-1β, IL-6, and TNFα, using Meso Scale assay according to manufacturer's protocol. The negative control wells were treated with DMSO.
as §6

Another assay deals with IL-6. Description: IL-6 inhibition assay, LPS-induced PBMCs or CD14+ monocytes, Meso Scale. Conditions: 1 h pretreatment, 100 ng/mL LPS 18-24 h, supernatant. The method, then:
as §7, §6

For the next assay, the system named is TNFα. Description: TNF-α inhibition assay, LPS-induced PBMCs or CD14+ monocytes, Meso Scale. Conditions: 1 h pretreatment, 100 ng/mL LPS 18-24 h, supernatant. As for the experimental part: as §7, §6
The test system of another assay is MOLM-13 cells. In words: MOLM-13 cell viability assay (CellTiter-Glo). As to conditions: Homo sapiens, MOLM-13, 72 h, 3 days, % of DMSO control. As for the experimental part:
MOLM-13 cells were cultured in RPMI 1640 media supplemented with 10% fetal bovine serum, streptomycin and penicillin, and were plated in white walled 96-well plates at 2500 cells/well. Cells were incubated in DMSO (control) or the indicated compound for 3 days at 37° C. and 5% CO2. Following the incubation period, 100 μL of CellTiterGlow (CTG) reagent (CellTiter-Glo® Luminescent Cell Viability Assay, Promega (Madison, Wis.)) was added to each well. Following a 10 minutes incubation with shaking, luminescence was measured using the EnVision Multimode plate reader.
The MOLM-13 cell viability values as % DMSO are reported as “A”, “B”, “C”, or “D”. “A” represents a % viability value of less than 25% (value<25%). “B” represents a % viability value of equal to or more than 25% and less than 50% (25%≤value<50%). “C” represents a % viability value of equal to or more than 50% and less than 75% (50%≤value<75%). “D” represents a % viability value of equal or more than 75% (value≥75%).

T2 sequence (P48729 whole entry): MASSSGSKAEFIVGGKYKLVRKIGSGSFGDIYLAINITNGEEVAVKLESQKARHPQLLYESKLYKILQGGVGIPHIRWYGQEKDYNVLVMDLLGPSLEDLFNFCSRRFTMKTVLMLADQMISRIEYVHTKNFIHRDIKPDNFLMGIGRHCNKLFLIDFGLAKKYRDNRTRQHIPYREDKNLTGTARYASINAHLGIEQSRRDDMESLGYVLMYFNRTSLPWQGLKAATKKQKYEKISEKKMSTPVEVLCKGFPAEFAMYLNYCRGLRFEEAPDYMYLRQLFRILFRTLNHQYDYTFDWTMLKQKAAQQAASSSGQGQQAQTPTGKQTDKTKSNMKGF
T2 sequence (Q96SW2 whole entry): as the sequence (Q96SW2 whole entry) above
T2 sequence (Q16531 whole entry partner): as the sequence (Q16531 whole entry partner) above
T1 sequence (Q13422 whole entry): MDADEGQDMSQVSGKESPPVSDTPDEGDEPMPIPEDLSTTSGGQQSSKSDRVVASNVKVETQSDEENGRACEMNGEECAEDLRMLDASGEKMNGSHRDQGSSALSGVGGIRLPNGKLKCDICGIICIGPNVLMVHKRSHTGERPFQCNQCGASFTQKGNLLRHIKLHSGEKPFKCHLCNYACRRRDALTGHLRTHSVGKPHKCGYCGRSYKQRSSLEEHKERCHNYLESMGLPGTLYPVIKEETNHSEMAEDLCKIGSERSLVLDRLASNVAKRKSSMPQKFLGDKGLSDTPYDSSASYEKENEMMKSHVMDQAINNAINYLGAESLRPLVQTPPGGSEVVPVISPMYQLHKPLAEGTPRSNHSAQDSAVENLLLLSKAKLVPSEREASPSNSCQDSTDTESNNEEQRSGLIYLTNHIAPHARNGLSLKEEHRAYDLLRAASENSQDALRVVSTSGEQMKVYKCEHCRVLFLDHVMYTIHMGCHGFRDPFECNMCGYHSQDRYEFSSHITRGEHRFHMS
T1 sequence (Q96SW2 whole entry): as the sequence (Q96SW2 whole entry) above
T1 sequence (Q16531 whole entry partner): as the sequence (Q16531 whole entry partner) above

Consider `O=C1CCC(N2Cc3c(CCc4ccc(CN5CCOCC5)cc4)csc3C2=O)C(=O)N1` (centres unmarked) [Compound 4], for which the IKAROS % degradation at 1 µM at IKAROS was in the range of 25 to 50%. In addition, the percent degradation at 1 µM at CK1α lay within 25 to 50%. Moreover, the “GSPT1 % Degradation at 1 μM” value on GSPT1 was “B (“B” represents a % degradation value of equal to or more than 25% and less than 50% (25%≤value<50%))”. In the assay on IL-2, this compound came in with a fold induction at 10 µM of 2 to 3.

Regarding `CCN(CC)Cc1ccc(OCc2scc3c2CN([C@H]2CCC(=O)NC2=O)C3=O)cc1` [Compound 14, (S)-3-(1-((4-((diethylamino)methyl)phenoxy)methyl)-4-oxo-4H-thieno[3,4-c]pyrrol-5(6H)-yl)piperidine-2,6-dione], at IKAROS, the “IKAROS % Degradation at 10 μM” value was “B (“B” represents a % degradation value of equal to or more than 25% and less than 50% (25%≤value<50%))”. The same compound displayed a percent degradation at 1 µM on CK1α of 50 to 75%. Further, the inhibition at 10 µM in the assay with IL-1β is 70 to 90%; in the assay with IL-6, less than 50%; in the assay with TNFα it was 70 to 90%. Further, the fold induction at 10 µM in the assay with IL-2 lay in the range of 2 to 3. The compound also came in with a viability at 10 µM in the assay with MOLM-13 cells of 50 to 75%.

Turning to `CC1COCC(C)N1Cc1ccc(OCc2scc3c2CN([C@H]2CCC(=O)NC2=O)C3=O)cc1` (stereo partly drawn) [Compound 19, (3S)-3-(1-((4-((3,5-dimethylmorpholino)methyl)phenoxy)methyl)-4-oxo-4H-thieno[3,4-c]pyrrol-5(6H)-yl)piperidine-2,6-dione], the IKAROS % degradation at 1 µM at IKAROS was in the range of 50 to 75%. The compound further had a percent degradation at 1 µM on CK1α of no less than 75%. Further, the “GSPT1 % Degradation at 1 μM” value at GSPT1 was “C (“C” represents a % degradation value of equal to or more than 50% and less than 75% (50%≤value <75%))”. Besides, the results for the inhibition at 10 µM in the assay with IL-1β, in the assay on IL-6 and with TNFα were 70 to 90%, less than 50% and 70 to 90%, respectively. The compound further returned a fold induction at 10 µM with IL-2 of no more than 1. In the assay with MOLM-13 cells, this compound registered a viability at 10 µM of 50 to 75%.

Take `O=C1CC[C@H](N2Cc3c(OCc4ccc(CN5CCOCC5)cc4)csc3C2=O)C(=O)N1` [Compound 2, (S)-3-(3-((4-(morpholinomethyl)benzyl)oxy)-6-oxo-4H-thieno[2,3-c]pyrrol-5(6H)-yl)piperidine-2,6-dione]: the “GSPT1 % Degradation at 1 μM” value at GSPT1 is “B (“B” represents a % degradation value of equal to or more than 25% and less than 50% (25%≤value<50%))”. The inhibition at 10 µM with IL-1β and in the assay with TNFα was less than 50% each time. Also, the fold induction at 10 µM in the assay with IL-2 lay in the range of 1 to 2.

`O=C1CC[C@H](N2Cc3c(csc3COc3ccc(CN4CCOCC4)cc3)C2=O)C(=O)N1` [Compound 1, (S)-3-(1-((4-(morpholinomethyl)phenoxy)methyl)-4-oxo-4H-thieno[3,4-c]pyrrol-5(6H)-yl)piperidine-2,6-dione]: the IKAROS % degradation at 1 µM on IKAROS was no less than 75%. Besides, the percent degradation at 1 µM at CK1α is no less than 75%. Moreover, the “GSPT1 % Degradation at 1 μM” value at GSPT1 was “C (“C” represents a % degradation value of equal to or more than 50% and less than 75% (50%≤value <75%))”. For the same compound, the inhibition at 10 µM in the assay with IL-1β is greater than 90%; in the assay with IL-6, 50 to 70%. Further, the fold induction at 10 µM in the assay with IL-2 was 1 to 2. In addition, the viability at 10 µM in the assay on MOLM-13 cells was 50 to 75%.

As for `CC1CN(Cc2ccc(OCc3scc4c3CN([C@H]3CCC(=O)NC3=O)C4=O)cc2)CC(C)O1` (stereo partly drawn) [Compound 17, (3S)-3-(1-((4-((2,6-dimethylmorpholino)methyl)phenoxy)methyl)-4-oxo-4H-thieno[3,4-c]pyrrol-5(6H)-yl)piperidine-2,6-dione], at IKAROS, the IKAROS % degradation at 1 µM lay within 50 to 75%. Also, at CK1α, the percent degradation at 1 µM was no less than 75%. The inhibition at 10 µM in the assay on IL-1β is 70 to 90%; in the assay on IL-6 it was less than 50%; with TNFα, greater than 90%. Moreover, the fold induction at 10 µM in the assay with IL-2 fell in the range of 1 to 2. In the assay on MOLM-13 cells, this compound came in with a viability at 10 µM of 50 to 75%.

For `CN(C)Cc1ccc(OCc2scc3c2CN([C@H]2CCC(=O)NC2=O)C3=O)cc1` [Compound 18, (S)-3-(1-((4-((dimethylamino)methyl)phenoxy)methyl)-4-oxo-4H-thieno[3,4-c]pyrrol-5(6H)-yl)piperidine-2,6-dione], at IKAROS, the “IKAROS % Degradation at 10 μM” value is “C (“C” represents a % degradation value of equal to or more than 50% and less than 75% (50%≤value <75%))”. At CK1α, this compound showed a percent degradation at 1 µM of no less than 75%. Also, the values for the inhibition at 10 µM in the assay with IL-1β and in the assay on TNFα were 50 to 70% and 70 to 90%, respectively. The compound further registered a fold induction at 10 µM with IL-2 of 2 to 3. The viability at 10 µM in the assay on MOLM-13 cells was less than 25%.

`O=C1CC[C@H](N2Cc3c(csc3COc3ccc(CN4CCCC4)cc3)C2=O)C(=O)N1` [Compound 13, (S)-3-(4-oxo-1-((4-(pyrrolidin-1-ylmethyl)phenoxy)methyl)-4H-thieno[3,4-c]pyrrol-5(6H)-yl)piperidine-2,6-dione] yielded an IKAROS % degradation at 1 µM at IKAROS of 25 to 50%. The percent degradation at 1 µM at CK1α was in the range of 50 to 75%. The inhibition at 10 µM in the assay on IL-1β is greater than 90%; in the assay on IL-6, 50 to 70%; in the assay on TNFα, greater than 90%. In the assay with IL-2, this compound came in with a fold induction at 10 µM of 2 to 3. Moreover, the viability at 10 µM in the assay with MOLM-13 cells lay within 50 to 75%.
